What was measured:
STAT1 = conditions: lipid A 1 ng/ml, poly I:C 1 μg/ml
Protocol: BMMs from both wild-type and IFNAR−/− mice were stimulated with lipid A (1 ng/ml), poly I:C (1 μg/ml), CpG (100 nM), or fresh medium (M) for the indicated time periods, as described in Example 2, infra.
(A): Cell lysates were subjected to western blotting analyses to detect phosphorylated STAT1 (P-STAT1) and total STAT1.
For STAT1 immunoblotting, cells were lysed in modified RIPA buffer and 20 μg of protein were loaded per lane and separated by SDS-PAGE. Gels were transferred to nitrocellulose filters and immunoblotted using the antibody manufacturers' recommended instructions. Antibodies specific to the STAT1 or the phosphorylated forms of STAT1 were obtained from Cell Signaling Technologies and Santa Cruz Biotechnologies, respectively. The anti-MyD88 antibody was purchased from ProSci Incorporated. For detection of MHV68, equal amounts were loaded in each lane and analyzed by western blotting techniques using rabbit anti-M9. Blots were stripped and re-probed with anti-actin (Sigma) to verify equal loading.
To address this issue we stimulated IFNAR^−/− BMMs with lipid A and poly I:C and assayed for STAT1 phosphorylation.

BMMs = experiment: Q-PCR gene expression in BMMs stimulated with TLR agonists (Example 1); format: cell-based, murine; conditions: for immediate early upregulation of IFNβ, IP10 and RANTES: BMMs, lipid A 1 ng/mL, PGN 10 μg/mL, poly I:C 1 μg/ml, CpG 100 nM, 1 hr
Protocol: (C) BMM's were stimulated with the following TLR-agonists: lipid A (1 ng/mL), peptidoglycan (PGN) (10 μg/mL), poly I:C (I μg/ml), or CpG (100 nM) for 30 min, and cell extracts were used for an in vitro kinase assay using GST-c-jun as a substrate (upper left), identical simulations were repeated for I hr, and RNA was harvested, and used for Q-PCR analysis.
(A) BMMs were stimulated for the indicated time points with the following TLR-agonists: lipid A (1 ng/ml), PGN (20 μg/ml), poly I:C (1 μg/ml), or CpG (100 nM), and RNA was harvested and used for Q-PCR analysis.
Murine bone marrow-derived macrophages (BMMs) were differentiated from marrow from 6-10 week old C57B/6 mice as previously described (Chin, A. I., Dempsey, P. W., Beuhn, K., Miller, J. F., Xu, Y., and Cheng, G. (2002), Nature 416, 190-194). BMMs were maintained in 1× DMEM, 10% fetal bovine serum, 1% penicillin/streptomycin, and 30% L929 conditioned medium, and purity was assayed to be 94-99% CD11b^+. The RAW 264.7 murine macrophage cell line (ATCC: TIB-71) was maintained in 1× DMEM with 10% fetal bovine serum and 1% penicillin/streptomycin. […]
RNA was isolated for both Northern blotting and quantitative real-time PCR (Q-PCR) using a standard guanidium isothiocyanate method. […] For Q-PCR, RNA was quantitated and 2 μg of RNA was used to make cDNA templates using Superscript II (Invitrogen) according the manufactuors instruction with either oligo-dT or random hexamer as primers. […]
We then investigated the TLR-specificity of gene expression in BMMs using specific agonists for TLR4 (lipid A), TLR2 (peptioglycan), TLR3 (poly I:C) and TLR9 (CpG). In order to account for differences in binding affinity and receptor expression, the concentrations of TLR ligands used for stimulation were titrated to produce roughly equivalent activation of the JNK pathway as determined by GST-c-Jun in vitro kinase assay (FIG. 2C, upper left).

MHV68 = MHV68 replication in BMMs treated with TLR ligands (immunoblot of viral proteins); format: cell-based, Murine gammaherpesvirus 68; conditions: MOI=5, 48 hours, 10, 1 or 0.1 ng/ml lipid A, 100 nM CpG, 10 μg/ml PGN, 1, 0.1 or 0.01 μg/ml poly I:C
Protocol: (E) BMMs were infected with MHV68 (moi=5) and simultaneously treated with the indicated TLR ligands (100 nM CpG; 10, 1, or 0.1 ng/ml lipid A; 10 μg/ml PGN; or 1, 0.1, or 0.01 μg/ml poly I:C). After 48 hr, cells were harvested and analyzed for MHV68 replication proteins by immunoblotting using rabbit anti-MHV68 antibodies.
Murine gammaherpesvirus 68 (MHV68) was produced and titered as previously described (Wu, T.-T., Tong, L., Rickabaugh, T., Speck, S., and Sun, R. (2001), J. Virol. 75, 9262-9273). For infection of macrophages, cells were simultaneously treated with PAMPs and infected with MHV68 at an MOI of 5. Following an incubation period of 48 hours cells were lysed in Laemmli buffer and 10% of total volume was subjected to SDS-PAGE, transferred to nitrocellulose, and MHV68 proteins detected by western blotting.
BMMs were simultaneously infected with MHV68 (MOI=5) and treated with various TLR ligands (10, 1 or 0.1 ng/ml lipid A, 100 nM CpG, 10 μg/ml PGN or 1, 0.1, or 0.01 μg/ml poly I:C) for 48 hours, and replication of viral proteins was then assayed by western blot analysis. […] This was true whether BMMs were treated with 10 or 20 μg/ml PGN and the inhibition was always considerably weaker than that caused by either 1 ng/ml lipid A or 1 μg/ml poly I:C.

| Substance | STAT1 activation in IFNAR−/− macrophage cells (STAT1) | immediate early upregulation of IFNβ, IP10 and RANTES (BMMs) | inhibition of MHV68 replication (MHV68) | gene induction in TLR4-null BMMs (BMMs; BMMs from C57BL/10ScCr mice (null mutation in TLR4 gene)) |
| --- | --- | --- | --- | --- |
| poly I:C | abolished | immediate early upregulation | significantly inhibit MHV68 replication in a concentration dependent manner | – |
| lipid A | abolished | immediate early upregulation | significantly inhibit MHV68 replication in a concentration dependent manner | No gene induction |

Source: patent US20060057104A1, “Methods for stimulating tlr irf3 pathways for inducing anti-microbial, anti-inflammatory and anticancer responses” (THE Regents of the University of California Office of the …, priority 2002, published 2006)
